Test results published in patent publication US20100035926A1, “PYRAZOLE DERIVATIVES AS NON-STEROIDAL GLUCOCORTICOID RECEPTOR LIGANDS” (priority 2006, published 2010).

How the values were obtained:
GR = target: T1, GR (Homo sapiens, UniProt P04150); assay: GR Agonist Assay - MMTV Assay (A549 MMTV cells, renilla luciferase reporter); format: cell-based; details: 6 h, agonists, read-out: average maximum asymptote in the MMTV agonist assay
T1 construct: endogenous in cells; host or cells: A549 (human lung carcinoma, ECACC No. 86012804), stably transfected with reporter plasmids only
T1 sequence (P04150 1-777): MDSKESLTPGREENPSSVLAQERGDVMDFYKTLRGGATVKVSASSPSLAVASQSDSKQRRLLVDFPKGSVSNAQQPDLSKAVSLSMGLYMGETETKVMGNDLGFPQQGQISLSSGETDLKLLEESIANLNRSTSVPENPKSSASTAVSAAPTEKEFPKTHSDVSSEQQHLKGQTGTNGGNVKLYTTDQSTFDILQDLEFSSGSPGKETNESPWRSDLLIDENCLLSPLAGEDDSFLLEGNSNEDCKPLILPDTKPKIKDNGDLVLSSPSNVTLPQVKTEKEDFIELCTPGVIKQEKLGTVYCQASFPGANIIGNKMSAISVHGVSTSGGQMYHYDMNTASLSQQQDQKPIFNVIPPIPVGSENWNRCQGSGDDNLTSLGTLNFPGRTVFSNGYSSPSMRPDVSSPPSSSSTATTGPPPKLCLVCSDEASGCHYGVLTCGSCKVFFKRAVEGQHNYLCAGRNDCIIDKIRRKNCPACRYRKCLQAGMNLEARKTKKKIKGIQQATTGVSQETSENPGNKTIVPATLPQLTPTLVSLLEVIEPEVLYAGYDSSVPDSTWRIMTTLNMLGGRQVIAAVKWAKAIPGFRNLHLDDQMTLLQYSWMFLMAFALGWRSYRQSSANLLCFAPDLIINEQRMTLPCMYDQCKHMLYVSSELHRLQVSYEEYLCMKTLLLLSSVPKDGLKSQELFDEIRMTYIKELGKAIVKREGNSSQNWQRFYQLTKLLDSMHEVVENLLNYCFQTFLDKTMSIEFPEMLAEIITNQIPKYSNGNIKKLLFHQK
Outline: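 Stably transfected A549 MMTV cells carry a GR-driven luciferase reporter. Cells at 0.1×10^6/ml in DMEM with 10% FCS and 25 mM HEPES were added to wells containing compound. After detection reagent, plates were held about 15 mins at room temperature and luminescence was read.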

Progesterone Receptor = target: T2, Progesterone Receptor (Homo sapiens, UniProt P06401); assay: Assay for Progesterone Receptor Agonist Activity (CV-1 cells, PRb-BacMam, MMTV-BacMam); format: cell-based; details: at least once in this assay, read-out: progesterone receptor agonist pEC50 (converted)
T2 construct: expressed in transfected cells; host or cells: CV-1 cells transduced with PRb-BacMam and MMTV-BacMam
T2 sequence (P06401 1-933): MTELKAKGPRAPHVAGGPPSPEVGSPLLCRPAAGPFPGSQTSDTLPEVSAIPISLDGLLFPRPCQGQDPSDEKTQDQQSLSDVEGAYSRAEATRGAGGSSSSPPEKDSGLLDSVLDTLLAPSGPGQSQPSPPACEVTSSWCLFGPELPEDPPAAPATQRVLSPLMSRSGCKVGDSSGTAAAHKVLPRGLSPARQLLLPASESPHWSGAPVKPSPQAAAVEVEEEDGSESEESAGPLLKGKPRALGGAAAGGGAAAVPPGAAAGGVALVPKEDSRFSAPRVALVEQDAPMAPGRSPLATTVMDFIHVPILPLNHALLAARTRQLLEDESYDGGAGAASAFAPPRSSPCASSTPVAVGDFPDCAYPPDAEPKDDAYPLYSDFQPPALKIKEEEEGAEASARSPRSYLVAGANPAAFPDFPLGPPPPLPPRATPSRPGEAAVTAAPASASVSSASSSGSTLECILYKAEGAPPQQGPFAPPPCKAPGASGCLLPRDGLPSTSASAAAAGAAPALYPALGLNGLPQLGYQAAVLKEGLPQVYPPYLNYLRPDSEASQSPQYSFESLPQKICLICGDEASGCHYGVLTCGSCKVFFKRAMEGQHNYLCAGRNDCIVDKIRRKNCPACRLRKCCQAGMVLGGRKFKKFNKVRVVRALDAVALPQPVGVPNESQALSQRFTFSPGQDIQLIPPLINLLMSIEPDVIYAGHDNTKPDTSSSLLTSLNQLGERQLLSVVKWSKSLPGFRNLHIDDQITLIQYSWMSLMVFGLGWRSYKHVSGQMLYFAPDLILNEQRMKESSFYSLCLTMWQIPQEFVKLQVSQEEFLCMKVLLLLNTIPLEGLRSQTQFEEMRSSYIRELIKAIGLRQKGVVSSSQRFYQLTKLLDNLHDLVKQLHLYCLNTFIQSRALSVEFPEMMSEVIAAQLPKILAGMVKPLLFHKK

Row | Emax (GR) [%] | EC50 (Progesterone Receptor) [µM] | SMILES
1 | ≥ 40 | > 1 | Nc1c(C(=O)NCC(O)(CN(CCF)C(=O)c2ccccc2)C(F)(F)F)cnn1-c1ccc(F)cc1 (racemic) [Example 1 (racemic), 5-Amino-1-(4-fluorophenyl)-N-(3,3,3-trifluoro-2-{[(2-fluoroethyl)(phenylcarbonyl)amino]methyl}-2-hydroxypropyl)-1H-pyrazole-4-carboxamide]
2 | ≥ 40 | > 1 | Nc1c(C(=O)NCC(O)(CN(CCF)C(=O)c2ccccc2F)C(F)(F)F)cnn1-c1ccc(F)cc1 (racemic) [Example 2 (racemic), 5-Amino-1-(4-fluorophenyl)-N-[3,3,3-trifluoro-2-([(2-fluoroethyl)[(2-fluorophenyl)carbonyl]amino]methyl)-2-hydroxypropyl]-1H-pyrazole-4-carboxamide]
3 | ≥ 40 | > 1 | CCN(CC(O)(CNC(=O)c1cnn(-c2ccc(F)cc2)c1N)C(F)(F)F)C(=O)c1cccc(F)c1F (racemic) [Example 5 (racemic), 5-Amino-N-(2-{[[(2,3-difluorophenyl)carbonyl](ethyl)amino]methyl}-3,3,3-trifluoro-2-hydroxypropyl)-1-(4-fluorophenyl)-1H-pyrazole-4-carboxamide]
